Results taken from ChEMBL document CHEMBL6083231, “AANAT kinetics of CoASH-targeted electrophiles of tryptamine and related analogs” (Bioorg Med Chem Lett, 2024).

What was measured:
[1] = molecular target: T1, Serotonin N-acetyltransferase (Homo sapiens, UniProt Q16613); experiment: Inhibition of AANAT (unknown origin)
[2] = molecular target: T1, Serotonin N-acetyltransferase; experiment: Inhibition of human AANAT

T1 sequence (Q16613 whole entry): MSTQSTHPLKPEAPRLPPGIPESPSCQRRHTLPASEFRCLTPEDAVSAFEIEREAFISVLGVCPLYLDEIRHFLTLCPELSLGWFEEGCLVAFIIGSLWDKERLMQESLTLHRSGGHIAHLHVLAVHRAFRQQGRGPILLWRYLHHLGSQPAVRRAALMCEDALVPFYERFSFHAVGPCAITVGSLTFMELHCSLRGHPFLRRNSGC

## O=C(CBr)NCCc1c[nH]c2ccccc12
[1]
  IC50: 0.5 µM

## O=C(CCl)NCCc1c[nH]c2ccccc12
[1]
  IC50: 5.2 µM

## C=CC(=O)NCCc1csc2ccc(OC)cc12
[2]
  IC50: 25 µM
